Earlier results, collected in US7862843B2 (priority 2004, dated 2011).

Experiments:
prions [1] = tested on: prions
prions [2] = tested on: prions; remark: listed apart in the source

| SMILES | Inactivating the infectivity of prions (prions [1]) | Infectivity lost (prions [2]; 1,000 ppm available chlorine, 4-16 hour exposure) | Inactivation of prions on surfaces (prions [2]; full strength, 20,000-50,000 ppm) |
| --- | --- | --- | --- |
| CC(C)=O [acetone] | ineffective |  |  |
| O=C1CCO1 [beta-propiolactone] | ineffective |  |  |
| CCO [ethanol] | ineffective |  |  |
| C1CO1 [ethylene oxide] | ineffective |  |  |
| C=O [formalin] | ineffective |  |  |
| [Na+].[O-]Cl [hypochlorite, sodium hypochlorite] |  | 10^4-10^5 units of infectivity | effective |
